Read-outs that look alike come from different tables or passages of the source.
What was measured:
[1] = PK parameters in male mice (Table 9); assay type: in vivo; details: for F: PO 3 mg/kg vs IV 1 mg/kg; for Vd: read-out: Vss
Method: The pharmacokinetics (PK) of representative Compounds of the Disclosure were evaluated in mice or rats to provide an assessment of their oral bioavaibility. All animal experiments were performed under the guidelines of the University of Michigan Committee for Use and Care of Animals and using an approved animal protocol.

[2] = molecular target: T1, AR protein (Homo sapiens, UniProt P10275); experiment: Western blotting of AR protein degradation in VCaP cells; assay type: cell-based
T1 construct: endogenous in cells; host or cells: VCaP
T1 sequence (P10275 1-920): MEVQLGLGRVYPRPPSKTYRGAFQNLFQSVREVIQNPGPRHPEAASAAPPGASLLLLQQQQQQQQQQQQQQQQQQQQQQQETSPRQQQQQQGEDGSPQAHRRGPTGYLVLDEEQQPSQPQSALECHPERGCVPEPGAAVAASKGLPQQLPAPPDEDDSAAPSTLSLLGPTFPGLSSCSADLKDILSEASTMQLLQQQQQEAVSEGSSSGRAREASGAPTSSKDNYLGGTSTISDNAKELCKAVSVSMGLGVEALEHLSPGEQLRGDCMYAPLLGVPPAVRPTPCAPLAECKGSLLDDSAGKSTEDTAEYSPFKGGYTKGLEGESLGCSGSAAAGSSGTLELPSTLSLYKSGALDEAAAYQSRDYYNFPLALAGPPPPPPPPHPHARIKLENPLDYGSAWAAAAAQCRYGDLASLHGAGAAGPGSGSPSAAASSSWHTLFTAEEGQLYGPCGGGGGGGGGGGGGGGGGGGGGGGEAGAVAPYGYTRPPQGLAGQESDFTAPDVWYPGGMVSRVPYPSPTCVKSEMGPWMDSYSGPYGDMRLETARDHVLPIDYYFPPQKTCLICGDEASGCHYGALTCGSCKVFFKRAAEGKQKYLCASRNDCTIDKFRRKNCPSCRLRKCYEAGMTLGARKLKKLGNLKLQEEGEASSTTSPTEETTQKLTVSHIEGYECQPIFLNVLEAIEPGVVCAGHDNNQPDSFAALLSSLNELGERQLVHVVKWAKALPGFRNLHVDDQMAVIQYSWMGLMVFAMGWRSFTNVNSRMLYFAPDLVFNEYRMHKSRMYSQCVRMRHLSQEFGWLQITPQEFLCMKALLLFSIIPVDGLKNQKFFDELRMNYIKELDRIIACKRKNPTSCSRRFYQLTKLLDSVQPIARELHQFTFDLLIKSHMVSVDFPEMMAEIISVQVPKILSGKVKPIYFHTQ
Method: The treated cells were lysed with RIPA buffer. […] GAPDH was used as a loading control.
Bands were quantified with ImageJ software. The relative numbers of each band obtained from normalization with its corresponding GAPDH level were compared with Prism 8 software. The DC50 values were produced from Prism 8, and the DC90 values were calculated with an equation=Bottom+(Top−Bottom)/(1+10^((Log EC50−X)*HillSlope) based on DC50 and Hillslope values.

[3] = ICR, mouse, in vivo, IV 1 mg/kg
[4] = ICR, mouse, in vivo, IV 1 mg/kg, read-out: AUC(0-t)
[5] = ICR, mouse, in vivo, PO 3 mg/kg
[6] = ICR, mouse, in vivo, PO 3 mg/kg, read-out: AUC(0-t)
[7] = ICR, mouse, in vivo, PO 3 mg/kg, read-out: Cmax
[8] = ICR, mouse, in vivo, PO 3 mg/kg, read-out: Tmax

| % AR protein degradation in VCaP Cells ([2]; 0.001 μM) [%] | % AR protein degradation in VCaP Cells ([2]; 0.01 μM) [%] | % AR protein degradation in VCaP Cells ([2]; 0.1 μM) [%] | % AR protein degradation in VCaP Cells ([2]; 1 μM) [%] | Structure (SMILES) | clearance [1, 3] [mL/min/kg] | AUC(0-t) ([1]; IV 1 mg/kg) [ng·h/mL] | T1/2 ([1]; IV 1 mg/kg) [h] | AUC(0-t) ([1]; PO 3 mg/kg) [ng·h/mL] | Cmax ([1]; PO 3 mg/kg) [ng/mL] | T1/2 ([1]; PO 3 mg/kg) [h] | Tmax ([1]; PO 3 mg/kg) [h] | F [1] [%] | also measured |
| --- | --- | --- | --- | --- | --- | --- | --- | --- | --- | --- | --- | --- | --- |
| – | – | – | – | CN(c1ccc(C#N)c(Cl)c1)[C@H]1CC[C@H](NC(=O)c2ccc(N3CCC(N4CCN(c5ccc6c(c5)C(=O)N(C5CCC(=O)NC5=O)C6=O)CC4)CC3)cc2)CC1 (stereo partly shown) [compound 230, N-((1r,4r)-4-((3-chloro-4-cyanophenyl)(methyl)amino)cyclohexyl)-4-(4-(4-(2-(2,6-dioxopiperidin-3-yl)-1,3-dioxoisoindolin-5-yl)piperazin-1-yl)piperidin-1-yl)benzamide] | 5.5 | 2857 | 6.6 | 3811 | 251 | 10.6 | 5.3 | 44 | Vss ([1]; IV 1 mg/kg): 2.73 L/kg |
| – | – | – | – | CCN(c1ccc(C#N)c(Cl)c1)[C@H]1CC[C@H](NC(=O)c2ccc(N3CCC(N4CCN(c5ccc6c(c5)C(=O)N(C5CCC(=O)NC5=O)C6=O)CC4)CC3)cc2)CC1 (stereo partly shown) [compound 231, N-((1r,4r)-4-((3-chloro-4-cyanophenyl)(ethyl)amino)cyclohexyl)-4-(4-(4-(2-(2,6-dioxopiperidin-3-yl)-1,3-dioxoisoindolin-5-yl)piperazin-1-yl)piperidin-1-yl)benzamide] | 31.2 | – | – | – | – | – | – | 30 | half-life [1, 3]: 4.1 h; AUC(0-t) [1, 4]: 539 ng·h/mL; Vd [1, 3]: 4.34 L/kg; half-life [1, 5]: 2.4 h; AUC(0-t) [1, 6]: 492 ng·h/mL; Cmax [1, 7]: 102 ng/mL; Tmax [1, 8]: 1.7 h |
| 63 | 59 | 60 | 43 | N#Cc1ccc(O[C@H]2CC[C@H](NC(=O)c3ccc(N4CCN(C5CCN(c6ccc7c(c6)C(=O)N(C6CCC(=O)NC6=O)C7=O)CC5)CC4)cc3)CC2)cc1Cl (stereo partly shown) [compound 222, N-((1r,4r)-4-(3-chloro-4-cyanophenoxy)cyclohexyl)-4-(4-(1-(2-(2,6-dioxopiperidin-3-yl)-1,3-dioxoisoindolin-5-yl)piperidin-4-yl)piperazin-1-yl)benzamide] | 7.33 | – | – | – | – | – | – | 33 | half-life [1, 3]: 9 h; AUC(0-t) [1, 4]: 1980 ng·h/mL; Vd [1, 3]: 4.75 L/kg; half-life [1, 5]: 11.3 h; AUC(0-t) [1, 6]: 1990 ng·h/mL; Cmax [1, 7]: 122 ng/mL; Tmax [1, 8]: 6 h |
| 6 | 35 | 58 | 53 | N#Cc1ccc(O[C@H]2CC[C@H](NC(=O)c3ccc(NCCCCCCCCCNc4ccc5c(c4)C(=O)N(C4CCC(=O)NC4=O)C5=O)cc3)CC2)cc1Cl (stereo partly shown) [compound 215, N-((1r,4r)-4-(3-chloro-4-cyanophenoxy)cyclohexyl)-4-((9-((2-(2,6-dioxopiperidin-3-yl)-1,3-dioxoisoindolin-5-yl)amino)nonyl)amino)benzamide] | – | – | – | – | – | – | – | – | – |
| – | – | – | – | CN(c1ccc(C(=O)N2CCN(CC3CCN(c4ccc5c(c4)C(=O)N(C4CCC(=O)NC4=O)C5=O)CC3)CC2)cc1)[C@H]1CC[C@H](Oc2ccc(C#N)c(Cl)c2)CC1 (stereo partly shown) [compound 15] | – | – | – | – | – | – | – | – | AR protein degradation VCap 100 nM ([2]; 24 hr treatment): B (>50% degradation but <90% (24 hr treatment)) |
| 38 | 79 | 85 | 86 | N#Cc1ccc(O[C@H]2CC[C@H](NC(=O)c3ccc(N4CCN(CC5CN(c6ccc7c(c6)C(=O)N(C6CCC(=O)NC6=O)C7=O)C5)CC4)cc3)CC2)cc1Cl (stereo partly shown) [compound 224, N-((1r,4r)-4-(3-chloro-4-cyanophenoxy)cyclohexyl)-4-(4-((1-(2-(2,6-dioxopiperidin-3-yl)-1,3-dioxoisoindolin-5-yl)azetidin-3-yl)methyl)piperazin-1-yl)benzamide] | – | – | – | – | – | – | – | – | – |
| – | – | – | – | CN(c1ccc(C(=O)N2CCN(C3CCN(c4ccc5c(c4)C(=O)N(C4CCC(=O)NC4=O)C5=O)CC3)CC2)cc1)[C@H]1CC[C@H](Oc2ccc(C#N)c(Cl)c2)CC1 (stereo partly shown) [compound 14] | – | – | – | – | – | – | – | – | AR protein degradation VCap 100 nM ([2]; 24 hr treatment): C (>10% degradation but <50% (24 hr treatment)) |
| – | – | – | – | CN(c1ccc(C#N)c(Cl)c1)[C@H]1CC[C@H](NC(=O)c2ccc(N3CCN(CC4CN(c5ccc6c(c5)C(=O)N(C5CCC(=O)NC5=O)C6=O)C4)CC3)cc2)CC1 (stereo partly shown) [compound 237, N-((1r,4r)-4-((3-chloro-4-cyanophenyl)(methyl)amino)cyclohexyl)-4-(4-((1-(2-(2,6-dioxopiperidin-3-yl)-1,3-dioxoisoindolin-5-yl)azetidin-3-yl)methyl)piperazin-1-yl)benzamide] | – | 1226 | 3.8 | 1111 | 127 | 4.3 | 5.3 | 30 | Cl ([1]; IV 1 mg/kg): 13.7 mL/min/kg; Vss ([1]; IV 1 mg/kg): 3.92 L/kg |
| – | – | – | – | N#Cc1ccc(O[C@H]2CC[C@H](NC(=O)c3ccc(N4CCN(C5CN(c6ccc7c(c6)C(=O)N(C6CCC(=O)NC6=O)C7=O)C5)CC4)cc3)CC2)cc1Cl (stereo partly shown) [Cpd. No. 22] | – | – | – | – | – | – | – | – | AR protein degradation VCap 10 nM ([2]; 10 nM, 24 hr treatment): A (>90% degradation (24 hr treatment)); AR protein degradation VCap 100 nM ([2]; 24 hr treatment): A (>90% degradation (24 hr treatment)) |
| 18 | 69 | 80 | 59 | N#Cc1ccc(O[C@H]2CC[C@H](NC(=O)c3ccc(N4CCN(CCCNc5ccc6c(c5)C(=O)N(C5CCC(=O)NC5=O)C6=O)CC4)cc3)CC2)cc1Cl (stereo partly shown) [compound 219, N-((1r,4r)-4-(3-chloro-4-cyanophenoxy)cyclohexyl)-4-(4-(3-((2-(2,6-dioxopiperidin-3-yl)-1,3-dioxoisoindolin-5-yl)amino)propyl)piperazin-1-yl)benzamide] | – | – | – | – | – | – | – | – | – |

| Structure (SMILES) | % AR protein degradation in VCaP Cells ([2]; 0.001 μM) [%] | % AR protein degradation in VCaP Cells ([2]; 0.01 μM) [%] | % AR protein degradation in VCaP Cells ([2]; 0.1 μM) [%] | % AR protein degradation in VCaP Cells ([2]; 1 μM) [%] | clearance [1, 3] [mL/min/kg] | AUC(0-t) ([1]; IV 1 mg/kg) [ng·h/mL] | T1/2 ([1]; IV 1 mg/kg) [h] | AUC(0-t) ([1]; PO 3 mg/kg) [ng·h/mL] | Cmax ([1]; PO 3 mg/kg) [ng/mL] | T1/2 ([1]; PO 3 mg/kg) [h] | Tmax ([1]; PO 3 mg/kg) [h] | F [1] [%] | also measured |
| --- | --- | --- | --- | --- | --- | --- | --- | --- | --- | --- | --- | --- | --- |
| N#Cc1ccc(O[C@H]2CC[C@H](NC(=O)c3ccc(N4CCC(N5CCN(c6ccc7c(c6)C(=O)N(C6CCC(=O)NC6=O)C7=O)CC5)CC4)cc3)CC2)cc1Cl (stereo partly shown) [compound 223, N-((1r,4r)-4-(3-chloro-4-cyanophenoxy)cyclohexyl)-4-(4-(4-(2-(2,6-dioxopiperidin-3-yl)-1,3-dioxoisoindolin-5-yl)piperazin-1-yl)piperidin-1-yl)benzamide] | 73 | 91 | 85 | 75 | 6.5 | 2425 | 6.1 | 2154 | 207 | 5.6 | 4.0 | 30 | Vd [1, 3]: 3.04 L/kg |
| CN(c1ccc(C#N)c(Cl)c1)[C@H]1CC[C@H](NC(=O)c2ccc(N3CCC(CN4CCN(c5ccc6c(c5)C(=O)N(C5CCC(=O)NC5=O)C6=O)CC4)CC3)cc2)CC1 (stereo partly shown) [compound 234, N-((1r,4r)-4-((3-chloro-4-cyanophenyl)(methyl)amino)cyclohexyl)-4-(4-((4-(2-(2,6-dioxopiperidin-3-yl)-1,3-dioxoisoindolin-5-yl)piperazin-1-yl)methyl)piperidin-1-yl)benzamide] | 55 | 91 | 93 | 90 | – | 693 | 12.5 | 737.5 | 45.0 | 27.0 | 6.0 | 35 | Cl ([1]; IV 1 mg/kg): 18.3 mL/min/kg; Vss ([1]; IV 1 mg/kg): 17.6 L/kg |

Reference: patent US20230233690A1, “ANDROGEN RECEPTOR PROTEIN DEGRADERS” (THE REGENTS OF THE UNIVERSITY OF MICHIGAN, priority 2020, published 2023)
